Reference: a melting point compilation (Tetko et al.; mined from patent text by program, amines drawn as free bases though some values may be those of a salt)

Row | SMILES | melting point [°C]
1 | CC(C)C(NC(=O)Cn1cc(Cc2ccc(C(F)(F)F)cc2)cc(NC(=O)OCc2ccccc2)c1=O)C(=O)C(F)(F)F (centres undefined) | 61 to 65
2 | O=C(NC1CC=CCC1)NS(=O)(=O)c1ccc2c(c1)CCN(C(=O)N1CCCC1)CC2 (centres undefined) | 211 to 212
3 | COC(=O)N=C1SCCN1Cc1ccc(Cl)nc1 | 128 to 130
4 | CCc1[nH]c2cc(F)ccc2c1C1=CCNCC1 | 194 to 196
5 | Cc1cc(-n2cnnc2)ccc1N | 152 to 154
6 | COC(=O)CC(c1ccc(C)cc1)N1C(=O)c2ccccc2C1=O (centres undefined) | 97 to 99
7 | CCCc1nc2c(c(C)c(C)n3nnnc23)n1CC(C)(C)NC(C)=O | 237 to 240
8 | O=C(NC(=O)c1c(Cl)cccc1Cl)Nc1ccc(Cl)cn1 | 220 to 222
9 | Cc1ccc(-c2nc3ncccc3o2)cc1 | 135 to 136
10 | O=C(Nc1ccc(C(F)(F)F)cc1)C(=O)N1CCC(Cc2ccc(F)cc2)CC1 | 109 to 111
11 | COC(CN(C)C(=O)Nc1nnc(C(C)Oc2ccccc2Cl)s1)OC (centres undefined) | 101 to 104
12 | CCOC(=O)NNc1n[nH]c2cc(Cl)ccc12 | 210 to 211
13 | CCOC(=O)c1cc(OCc2ccccc2)c2c(Cl)cc(Cl)cc2n1 | 146 to 147
14 | CC(O)c1cc(C[C@H](NC(=O)c2c(Cl)cccc2Cl)C(=O)O)ccc1-c1ccccc1 (some centres undefined) | 115 to 117
15 | C=CCOc1ncnc2nc[nH]c12 | 199 to 200
16 | O=C(NC(=O)c1c(F)cccc1F)Nc1cc(Cl)cc(C(F)(F)F)c1Cl | 205 to 208
17 | Nc1ncccc1CCc1ccccc1 | 106 to 108
18 | CC(=O)Oc1c(C)c(C=O)nc2ccccc12 | 132 to 133
19 | O=C(Nc1cccc(-c2nnn[nH]2)c1)C(=O)N1CCC(Cc2ccccc2)CC1 | 159 to 161
20 | Cn1cnnc1C(O)(c1ccc(Cl)cc1)c1cc2c3c(c1)c(-c1cccc(Cl)c1)cc(=O)n3CCC2 (centres undefined) | 183
21 | Cc1nnc(-c2ccc3occ(-c4ccccc4)c3c2)o1 | 117 to 118
22 | Cc1ccc(S(=O)(=O)CNCC(CS(=O)(=O)c2ccccc2Oc2ccc(OC(F)(F)F)cc2)N(O)C=O)cc1 (centres undefined) | 161 to 162
23 | CC(=O)N(C)c1cccc(-c2ccnc3c(Cl)cnn23)c1 | 163 to 165
24 | Cc1cccc(C)c1N1Cc2ccccc2P1(C)=O (centres undefined) | 128 to 129
25 | c1ccc(Cn2ccc(CN3CCC(c4ccccc4)(c4ccccc4)CC3)n2)cc1 | 167 to 168

Row | SMILES | melting point [°C]
26 | COc1ccc(-c2ncnnc2-c2ccc(OC)cc2)cc1 | 118 to 120
27 | O=c1cc2c(nn1-c1ccccc1)-c1cc(Cl)ccc1CC2 | 184 to 186
28 | CC(C)C(=O)Nc1ccc(OCc2ccccc2)c(Br)c1N(C)C | 197 to 198
29 | COC(=O)c1ccc(C2CC(=O)NC2(CO)CO)c([N+](=O)[O-])c1 (centres undefined) | 144 to 145
30 | O=C1NCCN(c2ccc(OC(F)(F)C(F)F)cc2)C1=O | 240 to 242
31 | O=C(CN1CCCC1)Nc1ccc(Br)cc1 | 60 to 63
32 | COc1cc(OCC(=O)O)c(C)cc1SCc1ccc(OCc2ccc(C(F)(F)F)cc2)cc1 | 145
33 | Cc1cc(Br)cnc1CCCCNC1=NS(=O)(=O)c2cc(S(N)(=O)=O)ccc21 | 219 to 221
34 | Cc1cn(C)c2c1N(C(=O)CCl)c1ccccc1NC2=O | 267 to 269
35 | Cc1cccc(C(=O)NN2NC=CC2C(=O)NCC(O)c2ccc(C(F)(F)F)cc2)n1 (centres undefined) | 250 to 251
36 | CC(C)(C)[Si](C)(C)O[C@@H]1c2sccc2[C@]2(O[Si](C)(C)C(C)(C)C)C[C@H]1OC2=O | 133 to 137
37 | CCCCNC1=CC(=O)c2c(OC)ccc(OC)c2C1=O | 104 to 105
38 | Cc1onc(-c2ccccc2)c1-c1[nH]c2ccccc2c1C(=O)C(=O)N(C)C | 258 to 260
39 | O=C(O)Cc1cc(C(=O)c2ccc3cc(-c4ccccc4)[nH]c3c2)sc1-c1ccccc1 | 238 to 240
40 | O=[N+]([O-])c1ccc(-c2ccc(OCCCCCCO)cc2)cc1 | 117 to 119
41 | CCc1ccc(Nc2c(C(=O)NOC(CO)CO)ccc(F)c2F)c(F)c1 | 91 to 93
42 | CC(C)(S)CNC(=O)CCC(=O)O | 86 to 87
43 | C=Cn1cc(C(=O)O)c(=O)c2cc(F)c(F)c(F)c21 | 186 to 187
44 | COc1cc(C(=O)c2c[nH]c(-c3ccc(C)cc3)n2)cc(OC)c1OC | 201 to 203
45 | Cc1ccccc1-c1nc2n(c1-c1ccc(C3(NC(=O)OC(C)(C)C)CCC3)c(F)c1)-c1cccnc1Nc1ccccc1-2 | 138 to 140
46 | COc1ccccc1-c1cc2c(c(Br)cn2C)c2c1C(=O)NC2=O | 216 to 220
47 | N#Cc1ccccc1OCCCCCCCC(=O)O | 83 to 85
48 | CS(=O)(=O)N1CCC(Nc2nc(CCC(F)(F)F)nc(Nc3ccc(F)c(Cl)c3)n2)CC1 | 192 to 193
49 | CC(C)(C)CN1C(=O)C(=O)N(c2ccc(F)cc2)C1=S | 165 to 166
